The text below walks through data of US7592451B2, “Treatment for diabetes and obesity as well as method of screening compounds useful for such treatments” (New York University, priority 2005, dated 2009).

A word on the IC50: it is the concentration at which inhibition is half-maximal.

The test system of test [1] is Daf-2 mutant C. elegans strain e1370. In words: Dauer formation screen in Daf-2 mutant C. elegans. In kind it is in vivo. The note with it: L2 stage worms soaked in 100 μM compound, warmed to 25° C. As to the method:
The Daf-2 mutant C. elegans strain e1370 was grown on nematode growth media (NGM) agar plates with E. coli (OP50) under standard conditions at 16° C. C. elegans mutant strains were obtained from the Caenorhabditis Genetics Center. Twenty synchronized early L2 animals grown at 16° C. were soaked in 96-well plates containing 100 μM of compounds/2% OP50 culture/M9 buffer, and then incubated at 25° C. for 4 days.
TG-Bz library (1120 members) compounds were screened in L2 stage worms grown at 16° C. by soaking in a 100 μM chemical solution and were warmed up to 25° C., in which 100% of untreated Daf-2 mutant larvae enter dauer within 24 hours. […] E3 is the TGBz control compound (FIG. 2C).

Another test addresses T1, rabbit muscle GAPDH (Oryctolagus cuniculus, UniProt P46406).
T1 construct: host or cells: rabbit muscle
In words: In vitro GAPDH inhibition assay (NADH fluorescence). Conditions: 0.2 mM GAP, 0.1 mM NAD+, pH 8.6; read-out: IC50 against GAPDH. It is filed as biochemical. As to the method: Rabbit muscle GAPDH and glyceraldehydes-3-phosphate (GAP) were employed. The assay was performed in black polypropylene 96-well micro-titer plates using a 100 μl solution of 100 mM sodium phosphate at pH 8.6, 5 mM EDTA, 0.2 mM GAP, 0.1 mM NAD^+, 0.5 units of GAPDH in the presence of varying concentrations of compound. The reaction was initiated by addition of GAP. Amounts of produced NADH was monitored by a fluorescence plate reader, at λex=340 nm, λem=460 nm (ex=excitation, em=emission wave length) (FIG. 7).

Another test concerns 3T3-L1 pre-adipocytes. The experiment in a line: Glucose uptake (2-NBDG) by 3T3-L1 pre-adipocytes. In kind it is cell-based. As for the experimental part:
To validate the relevance of this C. elegans data to a mammalian system, F43 was tested for glucose uptake in 3T3-L1 pre-adipocytes using a fluorescent derivative of glucose, 2-NBD-deoxyglucose (Moon et al., “A Novel Microtubule Destabilizing Entity from Orthogonal Synthesis of Triazine Library and Zebrafish Embryo Screening,” J. Am. Chem. Soc. 124:11608-11609 (2002), which is hereby incorporated by reference in its entirety).
3T3-L1 pre-adipocytes, were grown in DMEM (Dulbecco's Modified Eagle Medium Media) containing 1% antibiotics, and 10% heat-inactivated newborn calf serum under a humidified 5% CO2 atmosphere. The cells were seeded in 48-well plates and allowed to adhere to the dish overnight. Cultures at 70-80% confluence were used for the chemical exposures. […] Fluorescence intensity was measured in a fluorescence micro-plate reader at λex=466 nm and λem=540 nm.
FIGS. 3A-B show the up-regulation of glucose uptake by 3T3-L1 pre-adipocytes upon treatment with Insulin, the TGBz compound F43, and the TGBz compound E3 as a control. […] Following incubation with the dye for 15 min. at 37° C., cells were washed with ice-cold PBS, and the fluorescence intensity was measured. The uptake of the fluorescent 2-NBDG was visualized by a Leica 2000 fluorescence microscope with excitation at 488 nm and long-pass detection at 530 nm and measured by a fluorescence microplate reader. […]

T1 sequence (P46406 2-333 limits assumed): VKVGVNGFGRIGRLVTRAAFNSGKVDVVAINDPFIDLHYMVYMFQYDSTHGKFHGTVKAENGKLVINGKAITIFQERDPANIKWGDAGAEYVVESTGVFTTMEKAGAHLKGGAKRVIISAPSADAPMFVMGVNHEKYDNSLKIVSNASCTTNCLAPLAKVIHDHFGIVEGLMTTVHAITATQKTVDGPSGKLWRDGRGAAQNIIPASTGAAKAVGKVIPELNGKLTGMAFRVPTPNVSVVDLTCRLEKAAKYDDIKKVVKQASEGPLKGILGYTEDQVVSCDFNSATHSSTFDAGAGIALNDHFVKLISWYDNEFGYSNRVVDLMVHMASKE

Turning to `O=C(NCCOCCOCCNc1nc(NCCc2ccc(O)c(O)c2)nc(Nc2ccccc2)n1)c1ccccc1` [F43], the “effect on dauer formation” value in test [1] is “inhibits dauer formation”. On rabbit muscle GAPDH, the IC50 was determined as 4 µM. In addition, in the test on 3T3-L1 pre-adipocytes (15 min incubation, 100 μM 2-NBDG, compound up to 10 μM), the “glucose uptake (2-NBDG fluorescence)” value is “dose dependent glucose uptake was observed”. Besides, the “glucose uptake on co-treatment with insulin” value in the test with 3T3-L1 pre-adipocytes (co-treatment with insulin (100 nM), 15 min) is on record as “synergistic effect”.
